According to patent US20200069675A1, “PHARMACEUTICAL PREPARATIONS OF SEBACOYL DINALBUPHINE AND ACETAMINOPHEN AND METHODS FOR TREATING PAIN” (International Education Foundation, priority 2018, published 2020):

How the values were obtained:
SD rats = assay: Paw pressure test (Randall and Selitto), analgesic effect after oral administration; format: in vivo, Sprague-Dawley rats; details: alone or combined, mean ± SE; for AUC / AUG: analgesic effect AUC; for AUC: 0-300 min; for Maximum Peak (% of MPA): cut-off 750 g; for Duration of action (min) (20% of MPA): time over 20% MPA; for Onset of action (min) (20% of MPA): time up to 20% MPA
Method: Male Sprague-Dawley rats weights between 260 and 330 g were purchased from BioLASCO (Taipei, Taiwan). The rats were housed in a controlled condition (free access to food and water); 12-h light-dark cycle, temperature 22° C. and humidity 60%. All experiments were conducted in accordance with the IACUC's Protocol for the Care and Use of Animals and to treat the animals in an ethical and humane manner consistent with the law.
Analgesic effects studies were used to the paw pressure test by Randall and Selitto. Nociceptive threshold is expressed in grams and measured with an analgesimeter (IITC Inc. Life Science, CA), were applied to the left hind paw of rats. All animals were tested at 15, 30, and 45 min prior to medication, to obtain an average baseline. Results were expressed as a percentage of the maximum possible effect (% MPE), according to the formula % MPA=(Test-Baseline)/(Cutoff-Baseline)×100, cut-off value: 750 g. AUC (area under curve) is independent of each individual, at each time point detection value minus own baseline and integral, then calculated the average. Negative values (% MPA and AUC) are considered as zero. The maximum peak of % MPA and Tmax are independent of each individual, then calculated the average. With 20% MPA as a baseline of valid analgesic effect, analysis of onset time of action up to 20% MPA and duration time of action over 20% MPA. Pharmacodynamic studies were conducted to compare in rats the analgesic effects of oral administration of SDE 75 mg/kg alone. AAP product (100 mg/kg) alone and combinations of SDE 75 mg/kg plus AAP product (100 mg/kg) or NAL 60 mg/kg alone. AAP product (100 mg/kg) alone and combinations of NAL 60 mg/kg plus AAP product (100 mg/kg). The anti-nociceptive thresholds were measured at 30, 60, 90, 120, 150, 180, 210, 240, 270, and 300 min after drug administration.

[1] = conventional form, Br J Clin Pharmacol 1988, 25:264-8; cited from earlier work
[2] = test system: hospitalized patients with postoperative pain; details: single oral doses, 128 hospitalized patients, evaluated each hour for 6 hours; Clin Pharmacol Ther 1986; 39:295-9; cited from earlier work
postoperative pain = details: oral vs intramuscular; cited from earlier work
[3] = Test 1, AAP product 100 mg/kg, SDE 75 mg/kg
[4] = Test 1, AAP product 100 mg/kg, SDE 75 mg/kg, time of maximum % MPA
[5] = Test 2, NAL 60 mg/kg, AAP product 100 mg/kg, MPA greater than 50%
[6] = Test 2, NAL 60 mg/kg, AAP product 100 mg/kg

Row | Compound | AUC (SD rats; [3]) [g·h] | Maximum Peak (% of MPA) (SD rats; [3]) | Tmax (SD rats; [4]) [min] | Duration of action (min) (20% of MPA) (SD rats; [3]) | Onset of action (min) (20% of MPA) (SD rats; [3]) | bioavailability through oral administration [1] | Duration of action (SD rats; [5]) [min] | Onset of action (SD rats; [5]) [min] | AUG (SD rats; [6]) [g·h] | % MPA (Maximum Peak) (SD rats; [6]) [% MPA] | Tmax (SD rats; [6]) [min] | analgesic effect (measures of total and peak analgesia) [2] | potency of oral relative to intramuscular nalbuphine as postoperative analgesic (postoperative pain)
1 | O=C(CCCCCCCCC(=O)Oc1ccc2c3c1O[C@H]1[C@@H](O)CC[C@@]4(O)[C@@H](C2)N(CC2CCC2)CC[C@]314)Oc1ccc2c3c1O[C@H]1[C@@H](O)CC[C@@]4(O)[C@@H](C2)N(CC2CCC2)CC[C@]314 [SDE, sebacoyl dinalbuphine ester] | 359.4 ± 34.8 | 46.6 ± 3.8 % of MPA | 37.5 ± 3.9 | 99.8 ± 10.0 | 14.7 ± 1.3 | – | – | – | – | – | – | – | –
2 | Oc1ccc2c3c1O[C@H]1[C@@H](O)CC[C@@]4(O)[C@@H](C2)N(CC2CCC2)CC[C@]314 [NAL, nalbuphine] | – | – | – | – | – | less than 5% | 16.61 ± 3.92 | 24.36 ± 0.86 | 298.9 ± 13.98 | 57.87 ± 2.77 | 30 ± 0 | significantly superior to placebo | one quarter to one fifth as potent as intramuscular nalbuphine
3 | CC(=O)Nc1ccc(O)cc1 [AAP, acetaminophen] | 309.3 ± 68.5 | 32.4 ± 2.7 % of MPA | 50.0 ± 10.0 | 77.5 ± 13.5 | 46.7 ± 17.5 | – | – | – | 274.83 ± 51.94 | 38.26 ± 7.2 | 45 ± 8.66 | significantly superior to placebo | –
